Laboratory results: patent publication EP2775836B1, “METHODS FOR TREATING GOUT FLARES” (CymaBay Therapeutics, Inc., priority 2011, dated 2013)

Legend:
[1] = tested on: IL-1β; test: IL-1β mRNA and secretion in LPS stimulated primary mouse macrophages; assay type: cell-based; details: 75 and 150 µM, 1 hour before 100 ng/mL LPS for 8 hours
Experimental: Methods used in relation to FIGS. 4-5 showing effects of (-)-halofenic acid IL-1β were as follows:
Eight week-old male C57BL/6J mice were injected intra-peritoneally with 2.5 mL of 3% thioglycollate. Three days after injection, mice were sacrificed by cervical dislocation. Macrophages were harvested immediately by injecting 5 mL of PBS into the intra-peritoneal cavity, surgically exposing the intra-peritoneal cavity and aspirating the intra-peritoneal fluid with a 1 mL syringe. Macrophages from multiple animals were pooled and centrifuged at 1500 rpm, 10 min at 4 °C. Contaminating red blood cells were removed from the pellet by lysis with 10 mL RBC lysis buffer for 5min at room temperature, followed by centrifugation at 1500 rpm, 10 min at 4 °C. The cells were washed once and re-suspended in RPMI 1640, 10% FBS/0.1% Pen/Strep and plated into multi-well plates (1,000,000 cells/well for 24 well plates and 100,000 cells/well for 96 well plates). The cells were cultured for 30 hours, re-fed with fresh RPMI 1640, 0.5% FBS and incubated overnight. […]
The cells were harvested in Qiazol lysis solution for gene expression analysis. […] The Ct values for IL-1β were determined using ABI Sequence Detection Software. […] The fold change is then calculated using the formula 2^-[delta][delta]Ct. […]

[2] = Plasma concentration of (-)-halofenic acid after daily oral 400 mg arhalofenate (LC-MS/MS); assay type: in vivo, human
Experimental: Methods used in relation to FIGS. 1-2 showing the pharmacokinetic profile of (-)-halofenic acid were as follows:
Plasma proteins in human plasma samples containing of (-)-halofenic acid, an internal standard (I.S.) and heparin as the anticoagulant were precipitated with acetonitrile. The samples were vortex mixed, centrifuged and an aliquot was analyzed by reversed phase high performance liquid chromatography using a Phenomenex Polar RP column maintained at 45 °C. The mobile phase was nebulized using heated nitrogen in a Z-spray source/interface and the ionized compounds were detected using a tandem quadrupole mass spectrometer.
The plasma concentrations were rounded to the nearest one-tenth µg/mL before the calculations. Plasma samples with concentrations below the quantifiable limit of 1.0 µg/mL (BQL) were assigned values of zero.

[3] = tested on: serum uric acid; test: Phase 1 multiple-dose study MBX102-2DM01011b: serum uric acid after daily oral dosing for 10 days; assay type: in vivo, human; details: for Mean % change: Day 9 vs baseline; for Mean change at Day 9: change from baseline; for Mean uric acid at Day 9: healthy adult subjects
Experimental: Methods used in relation to FIG. 3 showing reduction in serum uric acid in subjects over time following once daily dosing with arhalofenate were as follows.
A single centre, Phase 1, placebo- and positive-controlled, double-blind, randomized, dose escalation study (MAD study, MBX102-2DM01011b) was conducted to evaluate the multiple-dose pharmacokinetics (PK) of (-)-halofenate administered as a daily dose orally for 10 days, at the protocol-specified doses in healthy adult subjects. A total of 119 subjects completed study treatment according to protocol: 6 subjects received MBX-102 100 mg/day for 10 days; 6 subjects received MBX-102 200 mg/day for 10 days; 9 subjects received MBX-102 400 mg/day for 10 days; 20 subjects received MBX-102 600 mg/day for 10 days; 10 subjects received MBX-102 600 mg Enteric Coated (EC) /day for 10 days; 9 subjects received MBX-102 800 mg EC/day for 10 days; 10 subjects received MBX-102 1000 mg EC/day for 10 days; 24 subjects received placebo treatment daily for 10 days; and 25 subjects received naproxen 500 mg b.i.d. monotherapy for 7 days. In this study, serum uric acid was measured at screening and on Days 1, 3, 5, 7, 9, 14, and 21.

[4] = tested on: 3T3-L1 adipocytes; test: Example 1: suppression of uric-acid induced inflammation in vitro; assay type: cell-based, murine; details: 50-150 µM, uric acid 5 or 15 mg/dL, 3 or 7 days
Experimental: Differentiated murine 3T3-L1 adipocytes are cultured in vitro in 24 well plates. To the culture medium (-)-halofenic acid is added at a final concentration of 50- 150 µM prior to the addition of uric acid at 5 mg/dL or 15 mg/dL and the culture continued for 3 or 7 days. A parallel culture of cells is conducted in the presence of a vehicle such as dimethylsulfoxide (DMSO). At the end of the culture period media is removed, cells are isolated and messenger RNA prepared. The levels of secreted cytokines representing a panel of pro-inflammatory cytokines including but not restricted to monocyte chemoatractant protein-1 (MCP-1), tumor necrosis factor α (TNF-α), interlekin-1β, (IL-1β), interleukin-6 (IL-6) and interleukin-12 (Il-12) are determined in the media isolated from the cells using commercially available cytokine assay kits. The levels of gene expression for the mRNAs for a panel of pro-inflammatory cytokines including but not restricted to monocyte chemoatractant protein-1 (MCP-1), tumor necrosis factor α (TNF-α), interlekin-1β, (IL-1β), interleukin-6 (IL-6) and interleukin-12 (Il-12) are determined using real-time PCR. […] A similar study is also conducted in primary mouse macrophages and human umbilical vein endothelial cells.

[5] = tested on: high sensitivity C-Reactive Protein (hs-CRP); test: Phase 1 multiple-dose study M102-0507: change in hs-CRP in type 2 diabetic patients on Glynase; assay type: in vivo, human
Experimental: Data presented in FIGS. 6 and 7 were generated based on a single-center, Phase 1, randomized, single-blind, multiple-dose study (M102-0507) evaluating the effect of (-)-halofenate given to type 2 diabetic patients who were receiving a stable dose of Glynase® (micronized glyburide). Eligible patients were initially dosed for 3 days with Glynase® 3 mg/day, and if safety and tolerability were acceptable to the Investigator, the dose was increased to Glynase® 6 mg/day for 4 days, followed by 14 days of Glynase® 6 mg and either (-)-halofenate 400 mg or 600 mg administration until Day 21, the patients were discharged on Day 22.
In this study, change in high sensitivity C-Reactive Protein (hs-CRP) from baseline was one of the endpoints. […] At Day 22, the mean percentage changes in C-reactive protein compared to Day 1 were -21.1% and -32.9% in Group 1 ((-)-halofenate 400 mg) and Group 2 ((-)-halofenate 600 mg), respectively.

[6] = tested on: serum uric acid; details: monotherapy at 40, 80, 120, 160 and 240 mg/day, gout patients; cited from earlier work
[7] = 600 mg Enteric Coated (EC)/day for 10 days

Q: Which “messenger RNA encoding the pro-inflammatory cytokine IL-1β” value ([1]; FIG. 4) does the source give for `O=C(O)C(Oc1cccc(C(F)(F)F)c1)c1ccc(Cl)cc1` (single isomer, unassigned; (-)) [(-)-halofenic acid, (-)-4-chlorophenyl-(3-trifluoromethylphenoxy) acetic acid] here?
A: lower the messenger RNA

Q: What about the “secretion of the pro-inflammatory cytokine IL-1β” value ([1]; FIG. 5) of the same compound?
A: lowering the secretion

Q: What about the intraday plasma concentration ([2]; Day 15 and Day 30, daily oral 400 mg arhalofenate, FIG. 2) of the same compound?
A: relatively constant

Q: And the half-life ([2]; plasma, daily oral 400 mg arhalofenate for 30 days, FIGS. 1-2)?
A: long half-life

Q: With `CC(=O)NCCOC(=O)[C@H](Oc1cccc(C(F)(F)F)c1)c1ccc(Cl)cc1` [(-)-halofenate, (-)-(R)-(4-chloro-phenyl)-(3-trifluoromethyl-phenoxy)-acetic acid 2-acetylamino-ethyl ester] as the compound, how does the Mean % change ([3]; 400 mg/day orally for 10 days) read?
A: -21%

Q: And the “Mean change at Day 9” value ([3]; 400 mg/day orally for 10 days)?
A: -1.02 mg/dL

Q: What about the “Mean uric acid at Day 9” value ([3]; 400 mg/day orally for 10 days) of the same compound?
A: 3.89 mg/dL

Q: And the Mean % change [3, 7]?
A: -30%

Q: What about the “Mean change at Day 9” value [3, 7] of the same compound?
A: -1.69 mg/dL

Q: And the “Mean uric acid at Day 9” value [3, 7]?
A: 3.92 mg/dL

Q: What about the Mean % change ([3]; 600 mg/day orally for 10 days) of the same compound?
A: -33%

Q: What about the “Mean change at Day 9” value ([3]; 600 mg/day orally for 10 days) of the same compound?
A: -1.65 mg/dL

Q: What about the “Mean uric acid at Day 9” value ([3]; 600 mg/day orally for 10 days) of the same compound?
A: 3.40 mg/dL

Q: What about the Mean % change ([3]; 800 mg EC/day for 10 days) of the same compound?
A: -32%

Q: What about the “Mean change at Day 9” value ([3]; 800 mg EC/day for 10 days) of the same compound?
A: -1.77 mg/dL

Q: What about the “Mean uric acid at Day 9” value ([3]; 800 mg EC/day for 10 days) of the same compound?
A: 3.83 mg/dL

Q: And the Mean % change ([3]; 1000 mg EC/day for 10 days)?
A: -45%

Q: What about the “Mean change at Day 9” value ([3]; 1000 mg EC/day for 10 days) of the same compound?
A: -2.44 mg/dL

Q: What about the “Mean uric acid at Day 9” value ([3]; 1000 mg EC/day for 10 days) of the same compound?
A: 3.04 mg/dL

Q: And the “reduction in serum uric acid” value ([3]; all dose levels tested, dose dependent, over a period of time)?
A: gradual reduction

Q: What about the “expression and secretion of panel of pro-inflammatory cytokines” value [4] of the same compound?
A: reduced level of expression and consequently secretion

Q: What about the “uptake of uric acid into 3T3-L1 adipocytes” value [4] of the same compound?
A: prevents the uptake of uric acid

Q: What about the “Day 22 hs-CRP” value ([5]; (-)-halofenate 600 mg/day Day 8-21 with Glynase 6 mg/day, type 2 diabetic patients) of the same compound?
A: 4.4

Q: And the “mean percentage change in C-reactive protein at Day 22 compared to Day 1” value ([5]; Group 1: 400 mg/day Day 8-21 with Glynase 6 mg/day)?
A: -21.1%

Q: And the “Mean % change from Day 8 (Day 22 hs-CRP)” value ([5]; Group 2: 600 mg/day Day 8-21 with Glynase 6 mg/day, Day 8 = Glyburide only phase)?
A: -33.3%

Q: For `O=c1[nH]cnc2c(CN3C[C@H](CO)[C@@H](O)C3)c[nH]c12` [BCX4208, 7-(((3R,4R)-3-hydroxy-4-(hydroxymethyl)pyrrolidin-1-yl)methyl)-3H-pyrrolo[3,2-d]pyrimidin-4(5H)-one], which serum uric acid [6] is on record?
A: rapidly and significantly reduced
